Assay results taken from PubChem BioAssay (NCI).
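Briefly, cells in 96-well plates were exposed to five compound concentrations for 48 h, and endpoints were estimated by linear interpolation. GI50 marks 50% less growth. At the TGI there is no net growth.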

Assays:
Experiment in all cases: DTP human tumour cell line panel, 48 h
MOLT-4 leukemia = tested on: MOLT-4 leukemia
NCI-H460 lung = tested on: NCI-H460 lung
ACHN renal = tested on: ACHN renal
IGROV1 ovarian = tested on: IGROV1 ovarian
HOP-92 NSCLC = tested on: HOP-92 NSCLC
MALME-3M melanoma = tested on: MALME-3M melanoma
HOP-62 NSCLC = tested on: HOP-62 NSCLC
TK-10 renal = tested on: TK-10 renal
UO-31 renal = tested on: UO-31 renal
SR leukemia = tested on: SR leukemia

Row | Compound | GI50 (MOLT-4 leukemia) [µM] | TGI (MOLT-4 leukemia) [µM] | GI50 (NCI-H460 lung) [µM] | TGI (NCI-H460 lung) [µM] | GI50 (ACHN renal) [µM] | TGI (ACHN renal) [µM] | GI50 (IGROV1 ovarian) [µM] | TGI (IGROV1 ovarian) [µM] | GI50 (HOP-92 NSCLC) [µM] | TGI (HOP-92 NSCLC) [µM] | GI50 (MALME-3M melanoma) [µM] | TGI (MALME-3M melanoma) [µM] | GI50 (HOP-62 NSCLC) [µM] | TGI (HOP-62 NSCLC) [µM] | GI50 (TK-10 renal) [µM] | TGI (TK-10 renal) [µM] | GI50 (UO-31 renal) [µM] | TGI (UO-31 renal) [µM] | GI50 (SR leukemia) [µM] | TGI (SR leukemia) [µM]
1 | COc1cc2c(cc1OC)C(CCc1ccc(Cl)cc1)N(C)CC2 (stereo not given) | 35.7 | 94.9 | 17.8 | 40.2 | 25.7 | 92 | 36.9 | > 100 | 13.6 | 92.7 | 21.6 | 46.5 | 32.9 | > 100 | 17 | 42.2 | 20.6 | > 100 | 28.4 | 63.4
2 | c1cncc(CNc2ccccc2-c2nnc(Nc3ccc4c(c3)OCO4)o2)c1 | 0.194 | > 100 | 0.0435 | > 100 | 0.717 | > 100 | 0.171 | > 100 | 0.0904 | 28.9 | 0.0744 | > 100 | 0.085 | > 81 | 1.18 | > 46.8 | 0.31 | > 100 | 0.0361 | > 100
3 | OC(c1ccccc1)(c1ccccc1)c1ccccn1 |  | > 100 |  | > 100 |  | > 100 |  | > 100 |  | > 100 |  | > 100 |  | > 100 |  | > 100 |  | > 100 |  | > 100
4 | Cc1ccc(/C=C(\C#N)n2nnc3cc(Cl)c(Cl)cc32)cc1 | 2.73 | > 100 | 2.43 | 6.52 | 1.8 | 3.63 | 2.26 | 6.48 | 1.61 | 9.65 | 2.18 | 6.21 | 2.6 | > 100 | 4.4 | 36.4 | 1.59 | 3.35 | 0.417 | 40.6
5 | COc1cc(CNC(=O)/C=C/C=C/c2ccc3c(c2)OCO3)ccc1OCc1cn(-c2ccc(Cl)c(Cl)c2)nn1 | 0.738 | 2.67 | 0.445 | 1.83 | 0.504 | 1.77 | 1.52 | 3.75 | 1.48 | 3.39 | 0.476 | 1.92 | 1.79 | 3.86 | 2.31 | 7.65 | 3.15 | 13.7 | 2.8 | 19.1
6 | COC(=O)[C@]12CC[C@@H](C)[C@H](C)[C@@H]1C1=CC[C@@H]3[C@@]4(C)C[C@@H](OC(=O)c5ccco5)[C@H](O)[C@@](C)(CO)[C@@H]4[C@H](O)C[C@@]3(C)[C@]1(C)CC2 | 2.04 | 4.44 | 1.97 | 3.87 | 2.76 | 7.69 | 2.42 | 6.33 | 2.59 | 6.19 | 2.15 | 4.3 | 2.03 | 4 | 2.49 | 7.85 | 2.02 | 7.42 | 1.99 | 4.68
7 | COC1=C(OC)C(=O)C(/C=C(\C)C(=O)O)=C(C)C1=O | > 100 | > 100 | > 100 | > 100 | > 100 | > 100 | > 100 | > 100 | > 100 | > 100 | > 100 | > 100 | > 100 | > 100 | > 100 | > 100 | > 100 | > 100 | > 100 | > 100
8 | C[N+](C)(C)CCOP(=O)(O)OP(=O)([O-])OCC1CCC(n2ccc(N)nc2=O)O1 (stereo not given) |  | > 100 |  | > 100 |  | > 100 |  | > 100 |  | > 100 |  | > 100 |  | > 100 |  | > 100 |  | > 100 |  | > 100
9 | CC(=O)NNc1nc(C)c(C(=O)NNC(=O)C(=O)Nc2ccc(C)c(C)c2)s1 |  | > 100 |  | > 100 |  | > 100 |  | > 100 |  | > 100 |  | > 100 |  | > 100 |  | > 100 |  | > 100 |  | > 100
10 | O=C1Cc2cc(CCn3ccnc3)c(Cl)cc2N1 | 56.7 | > 100 | 16.1 | > 100 | 20.3 | > 100 | > 100 | > 100 | 3.54 | 91.5 | 79.5 | > 100 | 33.2 | > 100 | > 100 | > 100 | 58 | > 100 | 9.24 | > 100
11 | CCCOc1ccc(/C(Cl)=C(\C=O)c2ccc(OC)c(OC)c2)cc1OCCC |  | > 100 |  | 28.7 |  | > 100 |  | > 100 |  | 51.2 |  | 38.8 |  | > 100 |  | 94.3 |  | > 100 |  | 12
12 | O=[N+]([O-])c1cccc(C2SCc3nc4ccccc4n32)c1 (stereo not given) |  | > 100 |  | > 100 |  | > 100 |  | > 100 |  | > 100 |  | > 100 |  | > 100 |  | > 100 |  | > 100 |  | > 100
13 | COc1ccc2c(c1)C(=O)c1c-2n(CCCN=[N+]=[N-])c(=O)c2ccccc12 | 4.38 | > 100 | 4.86 | > 100 | 28.7 | > 100 | 32.8 | > 100 | 50.7 | > 100 | > 100 | > 100 | 34.2 | > 100 | 60 | > 100 | 43.4 | > 100 | 5.7 | > 100
14 | COc1cc2cc3c4c(cc(OC)c(OC)c4c2cc1OC)CCN3C(=O)CCCC(=O)O |  | > 100 |  | > 100 |  | > 100 |  | > 100 |  | > 100 |  | > 100 |  | > 100 |  | > 100 |  | > 100 |  | > 100
15 | Fc1ccc(-c2nc(-c3nc4ccc(Cl)cc4[nH]3)cc3c2[nH]c2ccccc23)cc1 | 2.48 | 8.37 | 2.97 | 10.5 | 3.06 | 13.7 | 2.89 | 12.2 | 1.56 | 6.18 | 4.54 | 17.3 | 3.87 | 16.5 | 3.35 | 9.86 | 2.4 | 10.7 | 3.71 | > 100
16 | CCOc1ccc(Cc2nccc3cc(OCC)c(OCC)cc23)cc1OCC | 5.83 | 34.2 | 3.2 | 21.8 | 7.54 | 45.1 | 2.39 | 12.7 | 0.29 | 8.94 | 8.76 | 26 | 3.01 | 20.9 | 11 | 32.5 | 2.87 | 32.4 | 12.6 | 56.2
17 | O=C1NC(=NCC(CO)c2ccccc2)S/C1=C\c1ccc2ncccc2c1 (stereo not given) | > 25 | > 25 | > 16.1 | > 25 | 24.4 | > 25 | 19 | > 25 | > 25 | > 25 | > 25 | > 25 | 23.9 | > 25 | > 21.8 | > 25 | > 25 | > 25 | 4.49 | > 22.7
18 | CCN1CCC[C@H]1c1cc(O)c2c(c1OC)C[C@H]1C[C@H]3[C@H](N)C(=O)C(C(N)=O)=C(O)[C@@]3(O)C(=O)C1=C2O | 0.0587 | 0.666 | 0.0602 | 1.9 | 0.0517 | 0.802 | 0.0419 | 4.95 | 0.0522 | 3.52 | 0.0423 | 0.689 | 0.0517 | 1.67 | 0.0626 | 2.42 | 0.0528 | 2.93 | 0.0436 | 0.94
19 | CCc1cccc(C(C)CC)c1N=C(NC(=O)c1ccccc1C(=O)NC(=Nc1c(CC)cccc1C(C)CC)SC)SC (stereo not given) |  | > 100 |  | > 100 |  | > 100 |  | > 100 |  | 39.2 |  | > 100 |  | > 100 |  | 79 |  | > 100 |  | > 100
